We go through 37 compounds from patent US9428464B2, “Kynurenine-3-monooxygenase inhibitors, pharmaceutical compositions, and methods of use thereof” (CHDI Foundation, Inc., priority 2011, dated 2016).

The test system of this test is KMO. Description: KMO activity assay: L-Kynurenine hydroxylation to 3-Hydroxy-Kynurenine, quantified by LC/MS. The test is classed as biochemical. The following applies: compound at 10 uM; footnote: some portion of activity of amides may be due to contribution of acid precursor. As to the method:
A generalized procedure for monitoring L-Kynurenine (KYN) hydroxylation to form product 3-Hydroxy-Kynurenine (3OH-KYN) by LC/MS is described below. Product is quantified by multiple reaction monitoring using MS.
A method of monitoring L-Kynurenine (KYN) hydroxylation to form product 3-Hydroxy-Kynurenine (3OH-KYN) by LC/MS is described below. Product is quantified by multiple reaction monitoring.
• Compound: Stock concentrations: 10 mM in 100% DMSO • Enzyme: KMO enzyme prepared at Evotec via mitochondria isolation from CHO-GST HIS KMO cells • Substrate: L-Kynurenine (Sigma: Cat #K3750) • [stock concentration: 10 mM in 100 mM potassium phosphate buffer, pH 7.4]
A method of monitoring L-Kynurenine (KYN) hydroxylation to form 3-Hydroxy-Kynurenine (3OH-KYN) by LC/MS is described. Product is quantified by multiple reaction monitoring (MRM method).

Usually % Inhibition stands for the drop in the measured response relative to a control, in per cent.

As to `O=C(NC1(c2ccccc2)CC1)c1cc(-c2ccc(Cl)c(Cl)c2)ncn1` [6-(3,4-Dichloro-phenyl)-pyrimidine-4-carboxylic acid (1-phenyl-cyclopropyl)-amide], the “% Inhibition at 10 uM” value stood at 96.68%.
In the case of `NC(=O)C1CCN(C(=O)c2cc(-c3ccc(Cl)c(Cl)c3)ncn2)C1` (stereo not shown) [1-[6-(3,4-Dichloro-phenyl)-pyrimidine-4-carbonyl]-pyrrolidine-3-carboxylic acid amide] it was 101.835%; in that of `O=C(NC1CC1)C1CCN(C(=O)c2cc(-c3ccc(Cl)c(Cl)c3)ncn2)C1` (stereo not shown) [1-[6-(3,4-Dichloro-phenyl)-pyrimidine-4-carbonyl]-pyrrolidine-3-carboxylic acid cyclopropylamide], 91.815%; in that of `CC1(C)CC(C(N)=O)C(C)(C)N1C(=O)c1cc(-c2ccc(Cl)c(Cl)c2)ncn1` (stereo not shown) [1-[6-(3,4-Dichloro-phenyl)-pyrimidine-4-carbonyl]-2,2,5,5-tetramemyl-pyrrolidine-3-carboxylic acid amide], 98.27%.
In the case of `O=C1CN(C(=O)c2cc(-c3ccc(Cl)c(Cl)c3)ncn2)CCN1CCN1CCOCC1` [4-[6-(3,4-Dichloro-phenyl)-pyrimidine-4-carbonyl]-1-(2-morpholin-4-yl-ethyl)-piperazin-2-one] it was 98.7%.
In the case of `CC1CN(c2ccc(NC(=O)c3cc(-c4ccc(Cl)c(Cl)c4)ncn3)cc2)CC(C)O1.Cl` (stereo not shown) [6-(3,4-Dichloro-phenyl)-pyrimidine-4-carboxylic acid [4-(2,6-dimethyl-morpholin-4-yl)-phenyl]-amide hydrochloride salt] it was 97.61%; in that of `CC(=O)N[C@@H]1CCN(C(=O)c2cc(-c3ccc(Cl)c(Cl)c3)ncn2)C1` [N-{(R)-1-[6-(3,4-Dichloro-phenyl)-pyrimidine-4-carbonyl]-pyrrolidin-3-yl}-acetamide], 98.55%.
Take `O=C1CCC(NC(=O)c2cc(-c3ccc(Cl)c(Cl)c3)ncn2)N1` (stereo not shown) [6-(3,4-Dichloro-phenyl)-pyrimidine-4-carboxylic acid (5-oxo-pyrrolidin-2-yl)-amide]: the “% Inhibition at 10 uM” value stood at 93.08%.
For `Cl.O=C(N[C@@H]1CCNC1)c1cc(-c2ccc(Cl)c(Cl)c2)ncn1` [6-(3,4-Dichloro-phenyl)-pyrimidine-4-carboxylic acid (R)-pyrrolidin-3-ylamide hydrochloride salt], the “% Inhibition at 10 uM” value stood at 95.94%.
In the case of `O=C1CN(C(=O)c2cc(-c3ccc(F)c(Cl)c3)ncn2)CCN1` [4-[6-(3-Chloro-4-fluoro-phenyl)-pyrimidine-4-carbonyl]-piperazin-2-one], the “% Inhibition at 10 uM” value is on record as 100.85%.
The result for `CC(NC(=O)c1cc(-c2ccc(Cl)c(Cl)c2)ncn1)C1CCNCC1.Cl` (stereo not shown) [6-(3,4-Dichloro-phenyl)-pyrimidine-4-carboxylic acid (1-piperidin-4-yl-ethyl)-amide hydrochloride salt] reads 85.09%; that for `CN(C)C1(CNC(=O)c2cc(-c3ccc(Cl)c(Cl)c3)ncn2)CCOCC1.Cl` [6-(3,4-Dichloro-phenyl)-pyrimidine-4-carboxylic acid (4-dimethylamino-tetrahydro-pyran-4-ylmethyl)-amide hydrochloride salt], 96.81%.
Take `CN1CCN(c2cccc(NC(=O)c3cc(-c4ccc(Cl)c(Cl)c4)ncn3)c2)CC1.Cl` [6-(3,4-Dichloro-phenyl)-pyrimidine-4-carboxylic acid [3-(4-methyl-piperazin-1-yl)-phenyl]-amide hydrochloride salt]: the “% Inhibition at 10 uM” value amounted to 85.89%.
In the case of `Cl.O=C(Nc1ccc(N2CCNCC2)nc1)c1cc(-c2ccc(Cl)c(Cl)c2)ncn1` [6-(3,4-Dichloro-phenyl)-pyrimidine-4-carboxylic acid (6-piperazin-1-yl-pyridin-3-yl)-amide hydrochloride salt] it was 87.82%; in that of `CNC(=O)c1cc(-c2ccc(Cl)c(Cl)c2)ncn1` [6-(3,4-Dichloro-phenyl)-pyrimidine-4-carboxylic acid methylamide], 100.31%.
`CC(C)(C)c1nnc(NC(=O)c2cc(-c3ccc(Cl)c(Cl)c3)ncn2)o1` [6-(3,4-Dichloro-phenyl)-pyrimidine-4-carboxylic acid (5-tert-butyl-[1,3,4]oxadiazol-2-yl)-amide]: the “% Inhibition at 10 uM” value is 101.4%.
`O=C(NCC1CCOCC1)c1cc(-c2ccc(Cl)c(Cl)c2)ncn1` [6-(3,4-Dichloro-phenyl)-pyrimidine-4-carboxylic acid (tetrahydro-pyran-4-ylmethyl)-amide]: the “% Inhibition at 10 uM” value worked out at 101.39%.
In the case of `O=C(NS(=O)(=O)c1cccc(Cl)c1)c1cc(-c2cccc(Cl)c2)ncn1` [3-Chloro-N-[6-(3-chloro-phenyl)-pyrimidine-4-carbonyl]-benzenesulfonamide] it was 101.57%; in that of `O=C1OCc2c1ncnc2-c1ccc(Cl)c(Cl)c1` [4-(3,4-dichloro-phenyl)-5H-furo[3,4-d]pyrimidin-7-one], 94%; in that of `CON(C)C(=O)c1cc(-c2ccc(Cl)c(Cl)c2)ncn1` [6-(3,4-dichloro-phenyl)-pyrimidine-4-carboxylic acid methoxy-methyl-amide], 103.74%.
As for `C[C@H](NC(=O)c1cc(-c2ccc(Cl)c(Cl)c2)ncn1)c1ccccc1` [6-(3,4-Dichloro-phenyl)-pyrimidine-4-carboxylic acid ((S)-1-phenyl-ethyl)-amide], the “% Inhibition at 10 uM” value was determined as 102.29%.
The result for `CC1(C)CC(NC(=O)c2cc(-c3ccc(Cl)c(Cl)c3)ncn2)CC(C)(C)N1.Cl` [6-(3,4-Dichloro-phenyl)-pyrimidine-4-carboxylic acid (2,2,6,6-tetramethyl-piperidin-4-yl)-amide hydrochloride salt] reads 99.59%; that for `CN1CCN(C(=O)c2cc(-c3ccc(Cl)c(Cl)c3)ncn2)CC1` [[6-(3,4-Dichloro-phenyl)-pyrimidin-4-yl]-(4-methyl-piperazin-1-yl)-methanone], 94.86%; that for `O=C(Nc1cnccn1)c1cc(-c2ccc(Cl)c(Cl)c2)ncn1` [6-(3,4-Dichloro-phenyl)-pyrimidine-4-carboxylic acid pyrazin-2-yl-amide], 100.28%.
As to `CC(=O)N1CCN(C(=O)c2cc(-c3ccc(Cl)c(Cl)c3)ncn2)CC1` [1-{4-[6-(3,4-Dichloro-phenyl)-pyrimidine-4-carbonyl]-piperazin-1-yl}-ethanone], the “% Inhibition at 10 uM” value stood at 100.06%.
In the case of `Cc1nnc(NC(=O)c2cc(-c3cccc(Br)c3)ncn2)o1` [6-(3-Bromo-phenyl)-pyrimidine-4-carboxylic acid (5-methyl-[1,3,4]oxadiazol-2-yl)-amide] it was 102.59%.
On to `O=C(c1cc(-c2ccc(Cl)c(Cl)c2)ncn1)N1CCc2ccc(F)cc21` [[6-(3,4-Dichloro-phenyl)-pyrimidin-4-yl]-(6-fluoro-2,3-dihydro-indol-1-yl)-methanone], for which the “% Inhibition at 10 uM” value is given as 100.71%.
In the case of `C[C@@H](NC(=O)c1cc(-c2ccc(Cl)c(Cl)c2)ncn1)c1cccnc1` [6-(3,4-Dichloro-phenyl)-pyrimidine-4-carboxylic acid ((R)-1-pyridin-3-yl-ethyl)-amide], the “% Inhibition at 10 uM” value was 90.86%.
The result for `CON=C(C)c1cc(-c2cccc(Cl)c2)ncn1` [1-[6-(3-Chloro-phenyl)-pyrimidin-4-yl]-ethanone O-methyl-oxime] reads 102.2%; that for `CC(=O)c1cc(-c2cccc(Cl)c2)ncn1` [1-[6-(3-Chloro-phenyl)-pyrimidin-4-yl]-ethanone], 97.49%.
As to `O=S(=O)(Nc1cc(-c2ccc(Cl)c(Cl)c2)ncn1)c1cccc(F)c1` [N-[6-(3,4-dichlorophenyl)pyrimidin-4-yl]-3-fluorobenzene-1-sulfonamide], the “% Inhibition at 10 uM” value is 102%.
With `CC(C)(O)CNC(=O)c1cc(-c2ccc(Cl)c(Cl)c2)ncn1` [6-(3,4-Dichloro-phenyl)-pyrimidine-4-carboxylic acid (2-hydroxy-2-methyl-propyl)-amide], the “% Inhibition at 10 uM” value was 57.19%.
Turning to `Cc1cc(C)c(NC(=O)c2cc(-c3ccc(Cl)c(Cl)c3)ncn2)c(C)c1` [6-(3,4-Dichloro-phenyl)-pyrimidine-4-carboxylic acid (2,4,6-trimethyl-phenyl)-amide], the “% Inhibition at 10 uM” value amounted to 70.84%.
In the case of `Cl.O=C(Nc1ccc(OCCN2CCOCC2)nc1)c1cc(-c2ccc(Cl)c(Cl)c2)ncn1` [6-(3,4-Dichloro-phenyl)-pyrimidine-4-carboxylic acid [6-(2-morpholin-4-yl-ethoxy)-pyridin-3-yl]-amide hydrochloride salt] it was 86.37%.
The result for `Cl.O=C(Nc1cccc(N2CCOCC2)c1)c1cc(-c2ccc(Cl)c(Cl)c2)ncn1` [6-(3,4-Dichloro-phenyl)-pyrimidine-4-carboxylic acid (3-morpholin-4-yl-phenyl)-amide hydrochloride salt] reads 99.76%; that for `Cc1ccc(S(=O)(=O)Nc2cc(-c3ccc(Cl)c(Cl)c3)ncn2)c(C)c1` [N-[6-(3,4-dichlorophenyl)pyrimidin-4-yl]-2,4-dimethylbenzene-1-sulfonamide], 56%; that for `C[C@H](NC(=O)c1cc(-c2cc(Cl)ccc2F)ncn1)c1ccccc1` [6-(5-Chloro-2-fluoro-phenyl)-pyrimidine-4-carboxylic acid ((S)-1-phenyl-ethyl)-amide], 68.66%.
